Data published in patent US12233047B2, “Pharmaceutical combination and use thereof” (ASCENTAGE PHARMA (SUZHOU) CO., LTD., priority 2019, dated 2025).

Test system: Human AML cell line MV-4-11 (FLT3-ITD positive and wild type TP53 gene)
Assay: Human MV-4-11 AML subcutaneous mouse xenograft model
Type: in vivo
Settings: MV-4-11 subcutaneous xenograft, Compound 23 10 mg/kg, Compound C 30 mg/kg
Description: The formulation of Compound C was prepared as homogenous suspension in 0.2% HPMC using a mortar. The drug suspension was prepared every three days or once a week and placed at 4° C. when not in use. Before use, the drug suspension was placed at room temperature and shaken to mix well. The formulation of Compound C was administered to mice via p.o. in a volume of 10 mL/kg. […] The drug suspension was prepared once every other day and placed at 4° C. when not in use. Before use, the drug suspension was placed at room temperature and shaken well. […] MV-4-11 cells (Human AML cell line MV-4-11 (FLT3-ITD positive and wild type TP53 gene)) were maintained in IMDM (Cat. C12440500BT, GIBCO), with 10% fetal bovine serum (Cat. 10099-141, GIBCO), 1% L-glutamine, 100 U/mL penicillin G and 100 μg/mL streptomycin (Cat. GNM15140, Hangzhou Geno Biomedical Technology Co., Ltd). Cells were incubated at 37° C. in a humidified incubator with 5% CO2. Six to eight weeks old, female, NOD SCID and BALB/c nude mice were used. Animals were obtained from Vital River Laboratories (VRL, Beijing, China, license number SCXK(J) 2012-0001 and SCXK(J) 2016-0006). The body weights were 17-24 g. Randomization was conducted when the size of xenograft tumors reached 100-150 mm^3. Based on the size of the tumor and body weight, animals were randomly assigned into experimental groups. […] MV-4-11 subcutaneous xenograft models were established by subcutaneously injecting tumor cells (1×10^7 cells (50% Matrigel)/mouse) into the right flank of the mouse under the sterile condition. When the tumors reached an appropriate size (100-200 mm^3), mice were randomized into 6 mice per group and treatment was initiated (day 1) according to Table 4. [table] The tumors sizes and animal body weights were measured twice a week. Tumor volumes were estimated from measurements of two diameters of the individual tumors as follows: Tumor Volume (mm^3)=(a×b^2)/2 Relative tumor volume (RTV) were calculated according to the follows: RTV=Vt/V1 where V1 and Vt were respectively the average tumor volume on the first day of treatment (day 1) and the average tumor volume on a certain time point (day T). Standard NCI procedures were used to calculate tumor parameters (Teicher, B. A. (2011). “Tumor Models in Cancer Research.” Second Edition, Human Press). Percent tumor growth inhibition (% T/C) was calculated as the mean RTV of treated tumors (T) divided by the mean RTV of control tumors (C)×100%. […] A body weight loss (mean of group) of greater than 20%, or greater than 20% of drug deaths are considered to indicate an excessively toxic dosage. The synergistic analysis was performed using the following formula described in Clarke R. Issues in experimental design and endpoint analysis in the study of experimental cytotoxic agents in vivo in breast cancer and other models[J]. Breast Cancer Research & Treatment, 1997, 46(2-3):255-278, which is incorporated by reference in its entirety: expected value=(A/C)×(B/C); actual value=(AB)/C; A: RTV of drug A; B: RTV of drug B; C=RTV of the vehicle control group; AB=RTV of the combination group. Ratio=expected/actual value. […] A ratio=1 indicates the two drugs have additive effects. A ratio <1 indicates the two drugs may have antagonist effects. According to the earlier publication (Gao, H., et al. (2015). “High-throughput screening using patient-derived tumor xenografts to predict clinical trial drug response” Nat Med 21: 1318), additional measurements of response included stable disease (SD), partial tumor regression (PR), and complete regression (CR) were determined by comparing tumor volume change at day t to its baseline: tumor volume change (%)=(Vt−V1)/V1. […] For each time t, the average of tumor volume change from t=1 to t was also calculated. […]

SMILES: Cc1ccc(C(=O)Nc2ccc(CN3CCN(C)CC3)c(C(F)(F)F)c2)cc1C#Cc1cnc2[nH]ncc2c1 [Compound 23, 3-(2-(1H-pyrazolo[3,4-b]pyridin-5-yl)ethynyl)-4-methyl-N-(4-((4-methylpiperazin-1-yl)methyl)-3-(trifluoromethyl)phenyl)benzamide]
- Tumor weight on D 22 (Mean ± SEM) (day 22, p.o. q2d × 22 d, vehicle 2.29 ± 0.29, in g (unit assumed)): 0.67 ± 0.11
- T/C(%)@D 22 (mean RTV treated/control, day 22, p.o. q2d): 28.6%
- RTV@D 22 (relative tumor volume day 22, p.o. q2d, vehicle 18.2 ± 3.3): 5.2 ± 0.9
